# Patent US9181303B2, “Treatment of bacterial infections with cyclic antimicrobial peptides” (N[…], priority 2005, dated 2015)
# Where “and” joins values, the source holds several entries; their conditions need not be identical. Equal entries are not always repeated.
# Columns and labels:
# T. rubrum = test: Broth dilution antifungal susceptibility testing (CLSI M38-P), T. rubrum; type: cell-based, Trichophyton rubrum; conditions: for MIC versus T. rubrum: T. rubrum cultures
# Procedure: (§1) Broth Dilution Antifungal Susceptibility Testing
# (§2) The sensitivity of relevant fungal strains to the cyclized peptides was determined using Clinical Laboratory Standard Institute (CLSI; formerly NCCLS) Approved Standards. Fungal susceptibility was tested using “Reference Method for Broth Dilution Antifungal Susceptibility Testing of Filamentous Fungi; Approved Standard M38-P”, and yeast susceptibility was tested using “Reference Method for Broth Dilution Antifungal Susceptibility Testing of Yeasts; Approved Standard—Second Edition M27-A”.
# T. rubrum susceptibility to peptides 1-8 was tested.
# E. coli = test: Broth dilution antibacterial susceptibility testing (CLSI M7-A7), E. coli; type: cell-based; conditions: for MIC versus E. coli: growth over 16 hours at 37° C.
# Procedure: (§3) Broth Dilution Antibacterial Susceptibility Testing
# (§4) The sensitivity of relevant bacterial strains to the cyclized peptides was determined using Clinical Laboratory Standard Institute (CLSI; formerly NCCLS) Approved Standards. Bacterial susceptibility was tested using “Methods for Dilution Antimicrobial Susceptibility Tests for Bacteria That Grow […]; Approved Standard—Seventh Edition M7-A7”
# (§5) Cultures of E. coli and Staphylococcus aureus were exposed to Peptide 1 and the MIC after growth over the following 16 hours at 37° C. was 1 mM for both organisms (Table 2).
# S. aureus = test: Broth dilution antibacterial susceptibility testing (CLSI M7-A7), S. aureus; type: cell-based, Staphylococcus aureus
# Procedure: as §3, §4, §5
# T. interdigitale = test: Broth dilution antifungal susceptibility testing, T. interdigitale; type: cell-based, Trichophyton interdigitale; conditions: for Activity towards T. interdigitale: in words
# Procedure: as §1, §2
# T. interdigitale susceptibility to peptides 2-8 was tested. Peptides 2, 4 and 6 were active towards T. interdigitale.
# C. neoformans = test: Broth dilution antifungal susceptibility testing of yeasts (M27-A), C. neoformans; type: cell-based, Cryptococcus neoformans
# Procedure: as §1, §2
# C. neoformans susceptibility to peptides 4 and 6-8 was tested using “Reference Method for Broth Dilution Antifungal Susceptibility Testing of Yeasts; Approved Standard—Second Edition M27-A”.
# T. mentagrophytes = test: Broth dilution antifungal susceptibility testing, T. mentagrophytes; type: cell-based, Trichophyton mentagrophytes
# Procedure: as §1, §2
# M. furfur = test: Broth dilution antifungal susceptibility testing, M. furfur; type: cell-based, Malassezia furfur; conditions: M. furfur DSM6170
# Procedure: as §1, §2
# S. brevicaulis = test: Broth dilution antifungal susceptibility testing, S. brevicaulis; type: cell-based, Scopulariopsis brevicaulis
# Procedure: as §1, §2
# A. niger = test: Broth dilution antifungal susceptibility testing, A. niger; type: cell-based; conditions: A. niger NCPF2022
# Procedure: as §1, §2
# A. terreus = test: Broth dilution antifungal susceptibility testing, A. terreus; type: cell-based; conditions: A. terreus NCPF2729
# Procedure: as §1, §2
# Fusarium oxysporum = test: Broth dilution antifungal susceptibility testing, Fusarium oxysporum; type: cell-based; conditions: Fusarium oxysporum NCPF2722
# Procedure: as §1, §2
# Fusarium spp = test: Broth dilution antifungal susceptibility testing, Fusarium spp; type: cell-based
# Procedure: as §1, §2
# C. albicans = test: Broth dilution antifungal susceptibility testing of yeasts, C. albicans; type: cell-based
# Procedure: as §1, §2
# C. krusei = test: Broth dilution antifungal susceptibility testing of yeasts, C. krusei; type: cell-based
# Procedure: as §1, §2
# C. parapsilosis = test: Broth dilution antifungal susceptibility testing of yeasts, C. parapsilosis; type: cell-based
# Procedure: as §1, §2
# Ps. aeruginosa = test: Broth dilution antibacterial susceptibility testing, Ps. aeruginosa; type: cell-based
# Procedure: as §3, §4
# B. cepacia = test: Broth dilution antibacterial susceptibility testing, B. cepacia; type: cell-based, Burkholderia cepacia; conditions: B. cepacia ATCC25609
# Procedure: as §3, §4
# P. acnes = test: Broth dilution antibacterial susceptibility testing, P. acnes; type: cell-based; conditions: P. acnes DSMZ1897
# Procedure: as §3, §4
# S. epidermidis = test: Broth dilution antibacterial susceptibility testing, S. epidermidis; type: cell-based, Staphylococcus epidermidis; conditions: S. epidermidis ATCC12228
# Procedure: as §3, §4
# C. difficile = test: Broth dilution antibacterial susceptibility testing, C. difficile; type: cell-based, Clostridium difficile; conditions: C. difficile NCTC11209
# Procedure: as §3, §4
substance,measurement,setting,value
Cyclic-K-K-K-K-K-K-K [Peptide 1],MIC versus T. rubrum,T. rubrum,100 µM
same,MIC versus E. coli,E. coli,1000 µM
same,MIC versus S. aureus,S. aureus; growth over 16 hours at 37° C.,1000 µM
Cyclic-DO-DO-DO-DO-DO-DO-DO-G [Peptide 7],MIC versus T. rubrum,T. rubrum,>4000 µM
same,MIC versus T. interdigitale,T. interdigitale,>4000 µM
same,MIC versus C. neoformans,C. neoformans,2000 µM
Cyclic-K-K-K-K-K-K-K-G [Peptide 3],MIC versus T. rubrum,T. rubrum,4000 µM
same,MIC versus T. interdigitale,T. interdigitale,>4000 µM
Cyclic-DR-DR-DR-DR-DR-DR-DR-G [Peptide 6],MIC versus T. rubrum,T. rubrum,1000 µM
same,MIC versus T. interdigitale,T. interdigitale,250 µM
same,Activity towards T. interdigitale,T. interdigitale,active
same,MIC versus C. neoformans,C. neoformans,500 µM
Cyclic-DK-DK-DK-DK-DK-DK-DK-G [Peptide 8],MIC versus T. rubrum,T. rubrum,> 4000 µM
same,MIC versus T. interdigitale,T. interdigitale,>4000 µM
same,MIC versus C. neoformans,C. neoformans,500 µM
Cyclic-R-R-R-R-R-R-R-G [Peptide 4],MIC versus T. rubrum,T. rubrum,2000 µM
same,MIC versus T. interdigitale,T. interdigitale,500 µM
same,Activity towards T. interdigitale,T. interdigitale,active
same,MIC versus C. neoformans,C. neoformans,1000 µM
Cyclic-R-R-R-R-R-R-R [Peptide 2],MIC,T. rubrum; T. rubrum 7 Clinical Isolates,500 to 1000 µM
same,MIC,T. rubrum; T. rubrum NCPF118,250 µM
same,MIC versus T. rubrum,T. rubrum,250 µM and 200 µM
same,MIC versus T. interdigitale,T. interdigitale,<125 µM
same,MIC,T. interdigitale; T. interdigitale NCPF335,<125 µM
same,Activity towards T. interdigitale,T. interdigitale,active
same,MIC,E. coli; E. coli NCTC12900,100 µM
same,MIC,"E. coli; E. coli, No strain designation",100 µM
same,MIC versus E. coli,E. coli,100 µM
same,MIC,S. aureus; S. aureus 16 Clinical Isolates,>3800 µM
same,MIC,"S. aureus; S. aureus ANS46, MRSA",950 µM
same,MIC,S. aureus; S. aureus ATCC12598,950 µM
same,MIC,S. aureus; S. aureus ATCC25923,>100 µM
same,MIC,"S. aureus; S. aureus Col, MRSA",950 µM
same,MIC,"S. aureus; S. aureus MW2, MRSA",950 µM
same,MIC,"S. aureus; S. aureus N315, MRSA",950 µM
same,MIC,"S. aureus; S. aureus NCTC6571, MSSA",>1900 µM
same,MIC,S. aureus; S. aureus NCTC8325,>1900 µM
same,MIC,"S. aureus; S. aureus NCTC10442, MRSA",250 µM
same,MIC,S. aureus; S. aureus NCTC10788,>1900 µM
same,MIC,"S. aureus; S. aureus, No strain designation",250 µM
same,MIC,T. mentagrophytes; T. mentagrophytes DM2006 978,500 µM
same,MIC,T. mentagrophytes; T. mentagrophytes DM2006 1023,500 µM
same,MIC,M. furfur,0.031 mM
same,MIC,S. brevicaulis; S. brevicaulis DM2006 1025,500 µM
same,MIC,S. brevicaulis; S. brevicaulis NCPF2177,500 µM
same,MIC,A. niger,500 µM
same,MIC,A. terreus,>2000 µM
same,MIC,Fusarium oxysporum,>2000 µM
same,MIC,Fusarium spp; Fusarium spp DM2006 294,>2000 µM
same,MIC,Fusarium spp; Fusarium spp DM2006 495,>2000 µM
same,MIC,Fusarium spp; Fusarium spp DM2006 1026,>2000 µM
same,MIC,C. albicans; C. albicans AM2003-020,>2000 µM
same,MIC,C. albicans; C. albicans ATCC24433,>2000 µM
same,MIC,C. albicans; C. albicans ATCC90028,>2000 µM
same,MIC,C. albicans; C. albicans IHEM3742,>2000 µM
same,MIC,C. albicans; C. albicans NCTC3179,>2000 µM
same,MIC,C. albicans; C. albicans s20122.073,>2000 µM
same,MIC,C. krusei; C. krusei ATCC6258,125 µM
same,MIC,C. krusei; C. krusei NCPT3953,128 to 256 µM
same,MIC,C. parapsilosis; C. parapsilosis ATCC22019,250 µM
same,MIC,C. parapsilosis; C. parapsilosis ATCC90018,1000 µM
same,MIC,"Ps. aeruginosa; Ps. aeruginosa ATCC27853 (first entry, r42)",>1900 µM
same,MIC,"Ps. aeruginosa; Ps. aeruginosa ATCC27853 (second entry, r44)",>2000 µM
same,MIC,Ps. aeruginosa; Ps. aeruginosa DSM50071,>2000 µM
same,MIC,B. cepacia,>1900 µM
same,MIC,P. acnes,125 µM
same,MIC,S. epidermidis,25 µM
same,MIC,C. difficile,>2000 µM
Cyclic-O-O-O-O-O-O-O-G [Peptide 5],MIC versus T. rubrum,T. rubrum,4000 µM
same,MIC versus T. interdigitale,T. interdigitale,>4000 µM
